According to patent US20240368153A1, “Aminopyridine-based MTA-Cooperative PRMT5 Inhibitors” (Mirati Therapeutics, Inc., priority 2021, published 2024):
Where two headings read alike, the source gives them in different places.

Tests used:
[1] = biological target: recombinant human dual expressed Avi PRMT5/His-MEP50 protein (Homo sapiens (Human), UniProt O14744); experiment: HTRF binding assay in presence of MTA; conditions: 30 μM MTA
Procedure: The PRMT5 binding activity of compounds of the present invention was determined using an HTRF binding assay or SPR assay.
A recombinant human dual expressed Avi PRMT5/His-MEP50) protein (corresponding to amino acids for PRMT5 2-637, and 2-342 for MEP50 expressed in baculovirus) was incubated with target fragments in final buffer (25 mM ADA pH 7.2, 30 μM MTA, 1 mM TCEP, 50 mM NaCl, 0.002% Tween, 5 nM proprietary Tracer binding compound prepared in-house), overnight at 2-8° C. After overnight incubation the binding is monitored after the addition of 0.5 nM Anti-His-Tb (Cisbio) after 1 hr incubation at RT (˜20-24 hrs total binding time). The HTRF signal was measured using a Clariostar reader (BMG) excitation filter (Ex Tr), dichroic filter (LP TP) and emission filters (F 665-10 and F 620-10) manufacturer's instructions. The HTRF ratio was calculated using the formula: [emission 665/emission 620]*10000.

[2] = biological target: PRMT5/MEP50 complex (Homo sapiens (Human), UniProt O14744); experiment: PRMT5:MEP50 FlashPlate Assay; format: biochemical
Procedure: The PRMT5 inhibitory activity of compounds of the present invention was determined using a PRMT5:MEP50 FlashPlate Assay (Reaction Biology Corporation).
The assay uses purified human, PRMT5 enzyme to convert S-adenosyl-L-[methyl-^3H]methionine plus histone H4 L-arginine to S-adenosyl-L-homocysteine plus histone H4 [methyl-^3H]-L-arginine. The assay was carried out using Streptavidin-coated FlashPlates (Perkin Elmer), which contained a scintillant embedded in the plastic of the plate. The histone H4 peptide substrate was conjugated with biotin, which binds to the streptavidin-coated well of the plate, placing the H4 peptide in close proximity to the side well and the scintillant. The transfer of the tritiated methyl group from S-adenosyl-L-[methyl-^3H]methionine to the bound histone H4 peptide generated a radiolabeled histone H4, which was quantitated by measuring in a scintillation counter to determine the activity of PRMT5 enzyme in the presence and absence of compound. […] Briefly, compounds of the present invention were solubilized in 100% DMSO at a highest concentration of 10 mM. For IC, determinations, the initial starting concentration for the serial dilutions of each compound was 50 μM. Control samples lacking compound, PRMT5/MEP50 complex or various reaction components also were prepared and processed in parallel with compound test samples. SAH was used as a positive control for assay validation. To measure PRMT5 inhibitory activity, 3 nM PRMT5/MEP50 complex (Reaction Biology Corporation) was preincubated with test compound in assay buffer containing 40 nM histone H4 peptide (amino acids 1-15)-Biotin conjugate for 20 min at room temperature. The enzymatic reaction was initiated by adding 1 μM tritiated S-adenosyl methionine (final concentration) and the reaction is allowed to proceed for 20 min. The reaction was stopped and the amount of bound, tritiated H4 peptide in each sample was determined using a scintillation counter. The IC50 value for each compound was calculated from each 10-point dose-response curve for samples plus and minus MTA using GraphPad Prism software and the results for exemplary compounds of Formula (I) is shown in Table 9a.

[3] = IC50 + 2 μM MTA, histone H4 peptide, presence of 2 μM MTA
[4] = histone H4 peptide, absence of MTA, read-out: IC50
[5] = read-out: IC50 + 2 μM MTA, histone H4 peptide, presence of 2 μM MTA

recombinant human dual expressed Avi PRMT5/His-MEP50 protein, sequence (O14744 2-637): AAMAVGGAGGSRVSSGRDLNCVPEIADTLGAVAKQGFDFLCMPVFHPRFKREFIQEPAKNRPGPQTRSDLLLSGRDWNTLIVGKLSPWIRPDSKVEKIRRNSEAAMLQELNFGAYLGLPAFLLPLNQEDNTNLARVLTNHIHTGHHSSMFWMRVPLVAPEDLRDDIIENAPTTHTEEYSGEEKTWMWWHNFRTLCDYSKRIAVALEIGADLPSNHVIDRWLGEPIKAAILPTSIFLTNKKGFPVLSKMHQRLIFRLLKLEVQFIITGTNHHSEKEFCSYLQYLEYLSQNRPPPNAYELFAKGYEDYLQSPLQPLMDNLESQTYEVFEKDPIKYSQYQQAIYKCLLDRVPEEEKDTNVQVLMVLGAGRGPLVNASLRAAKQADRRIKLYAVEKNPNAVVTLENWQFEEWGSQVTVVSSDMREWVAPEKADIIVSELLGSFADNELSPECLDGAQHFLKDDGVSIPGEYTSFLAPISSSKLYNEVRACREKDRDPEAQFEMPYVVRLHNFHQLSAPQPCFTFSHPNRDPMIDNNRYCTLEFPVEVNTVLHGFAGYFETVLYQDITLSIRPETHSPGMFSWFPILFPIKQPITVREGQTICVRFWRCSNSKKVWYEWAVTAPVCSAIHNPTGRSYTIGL
recombinant human dual expressed Avi PRMT5/His-MEP50 protein, sequence (Q9BQA1 2-342 partner): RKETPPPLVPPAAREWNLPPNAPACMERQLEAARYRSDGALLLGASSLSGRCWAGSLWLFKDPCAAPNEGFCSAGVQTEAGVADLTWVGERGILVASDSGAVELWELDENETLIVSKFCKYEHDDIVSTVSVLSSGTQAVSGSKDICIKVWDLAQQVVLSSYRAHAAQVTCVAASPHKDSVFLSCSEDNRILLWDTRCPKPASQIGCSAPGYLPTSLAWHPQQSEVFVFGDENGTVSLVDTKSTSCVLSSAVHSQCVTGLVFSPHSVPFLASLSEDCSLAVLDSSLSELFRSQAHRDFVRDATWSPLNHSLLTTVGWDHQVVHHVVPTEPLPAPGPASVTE
PRMT5/MEP50 complex, sequence (O14744 whole entry): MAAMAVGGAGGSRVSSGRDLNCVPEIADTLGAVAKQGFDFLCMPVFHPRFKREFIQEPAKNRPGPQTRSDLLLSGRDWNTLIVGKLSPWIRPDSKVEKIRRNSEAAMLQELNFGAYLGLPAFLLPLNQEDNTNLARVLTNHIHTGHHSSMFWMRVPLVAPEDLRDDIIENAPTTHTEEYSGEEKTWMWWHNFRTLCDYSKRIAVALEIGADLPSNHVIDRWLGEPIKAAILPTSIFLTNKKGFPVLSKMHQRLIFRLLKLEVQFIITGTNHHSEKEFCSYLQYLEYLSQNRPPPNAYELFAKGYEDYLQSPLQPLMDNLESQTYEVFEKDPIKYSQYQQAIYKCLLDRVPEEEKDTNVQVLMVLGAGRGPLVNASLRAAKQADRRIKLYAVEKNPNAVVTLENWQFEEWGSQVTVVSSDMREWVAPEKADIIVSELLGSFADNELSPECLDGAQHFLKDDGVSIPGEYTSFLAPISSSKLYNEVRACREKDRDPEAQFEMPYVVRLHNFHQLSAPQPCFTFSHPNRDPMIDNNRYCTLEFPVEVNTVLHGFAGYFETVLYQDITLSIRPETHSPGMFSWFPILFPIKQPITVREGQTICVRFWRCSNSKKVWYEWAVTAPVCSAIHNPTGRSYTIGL
PRMT5/MEP50 complex, sequence (Q9BQA1 whole entry partner): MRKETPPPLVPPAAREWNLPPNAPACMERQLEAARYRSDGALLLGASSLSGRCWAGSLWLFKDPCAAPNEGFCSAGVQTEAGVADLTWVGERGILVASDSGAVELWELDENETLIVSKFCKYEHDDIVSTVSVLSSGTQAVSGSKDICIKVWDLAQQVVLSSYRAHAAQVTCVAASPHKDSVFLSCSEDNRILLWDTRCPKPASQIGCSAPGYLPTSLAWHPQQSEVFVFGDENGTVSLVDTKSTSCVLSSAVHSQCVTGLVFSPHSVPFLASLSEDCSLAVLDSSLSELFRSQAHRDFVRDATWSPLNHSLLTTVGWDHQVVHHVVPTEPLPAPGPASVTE

Compound	IC50 [1] [µM]	further results
Cc1cc(N)nc2cc(Cc3ccccc3)cnc12 [Example 2-1, 7-benzyl-4-methyl-1,5-naphthyridin-2-amine]	6.64	–
Cc1cc2[nH]c(N3CC(=O)NC3=O)cc2nc1N [Example 13-7, 1-(5-amino-6-methyl-1H-pyrrolo[3,2-b]pyridin-2-yl)imidazolidine-2,4-dione]	2.29	IC50 [2, 3]: > 300 µM; IC50 [2, 4]: > 300 µM
Cc1cc(N)nc2ccc(-c3ccsn3)nc12 [Example 4-10, 6-isothiazol-3-yl-4-methyl-1,5-naphthyridin-2-amine]	13.5	–
Cc1cc2[nH]c(NC(=O)c3ccccc3)cc2nc1N [Example 12-2, N-(5-amino-6-methyl-1H-pyrrolo[3,2-b]pyridin-2-yl)benzamide]	5.46	IC50 [2, 4]: 60.2 µM; IC50 [2, 5]: 44.7 µM
Cc1ccccc1Oc1cnc2c(C)cc(N)nc2c1 [Example 3-5, 4-methyl-7-(2-methylphenoxy)-1,5-naphtbyridin-2-amine]	39.6	–
Cc1cc(N)nc2cc(Cc3ccncc3)cnc12 [Example 2-8, 4-methyl-7-(4-pyridylmethyl)-1,5-naphthyridin-2-amine]	35.5	–
C#Cc1c(CNC(=O)c2ccccc2)[nH]c2cc(C)c(N)nc12 [Example 15-4, N-((5-amino-3-ethynyl-6-methyl-1H-pyrrolo[3,2-b]pyridin-2-yl)methyl)benzamide]	17	–
Cc1cc(N)nc2ccc(-c3cncs3)nc12 [Example 4-4, 4-methyl-6-thiazol-5-yl-1,5-naphthyridin-2-amine]	29.6	–
Cc1cc(N)nc2cc(Oc3ccccc3C#N)cnc12 [Example 3-4, 2-((6-amino-8-methyl-1,5-naphthyridin-3-yl)oxy)benzonitrile]	33.9	–
Cc1cc(N)nc2cc(-c3ccccc3)cnc12 [Example 1-1, 4-methyl-7-phenyl-1,5-naphthyridin-2-amine]	17.2	–
Cc1ccccc1Cc1cnc2c(C)cc(N)nc2c1 [Example 2-5, 4-methyl-7-(2-methylbenzyl)-1,5-naphtbyridin-2-amine]	8.83	–
Cc1cc(N)nc2cc(Oc3ccccc3)cnc12 [Example 3-1, 4-methyl-7-phenoxy-1,5-naphthyridin-2-amine]	8.99	–
Cc1cc(N)nc2cc(-c3cccnc3)cnc12 [Example 1-3, 4-methyl-7-(pyridin-3-yl)-1,5-paphthyridin-2-amine]	2.08	–
CNc1ccc2nc(N)cc(C)c2n1 [Example 5-1, N^2,8-dimethyl-1,5-naphthyridine-2,6-diamine]	≥ 100	–
CC(=O)NCc1cc2nc(N)c(C)cc2n1C(C)=O [Example 15-7, N-((1-acetyl-5-amino-6-methyl-1H-pyrrolo[3,2-b]pyridin-2-yl)methyl)acetamide]	0.581	–
Cc1cc(N)nc2cc(-c3cncs3)cnc12 [Example 1-6, 4-methyl-7-(thiazol-5-yl)-1,5-naphthyridin-2-amine]	51	–
Nc1ccc2c(n1)CN(c1cccnc1)CC2 [Example 11-1, 7-(3-pyridyl)-6,8-dihydro-5H-1,7-naphthyridin-2-amine]	3.68	–
Cc1cc2[nH]c(-n3cnc(Br)n3)cc2nc1N [Example 13-2, 2-(3-bromo-1,2,4-triazol-1-yl)-6-methyl-1H-pyrrolo[3,2-b]pyridin-5-amine]	4.27	IC50 [2, 3]: 72.8 µM; IC50 [2, 4]: 83.8 µM
Cc1cc(N)nc2ccc(-c3cnsc3)nc12 [Example 4-6, 6-isothiazol-4-yl-4-methyl-1,5-naphthyridin-2-amine]	21.8	–
Cc1cc(N)nc2cc(-c3ccsn3)cnc12 [Example 1-5, 7-(isothiazol-3-yl)-4-methyl-1,5-naphtbyridin-2-amine]	55.5	–
Cc1cc(N)nc2ccc(NC3CCC3)nc12 [Example 5-3, N^6-cyclobutyl-4-methyl-1,5-naphthyridine-2,6-diamine]	87.9	–

Compound	IC50 [1] [µM]	further results
Cc1cc(N)nc2cc(-c3cnn(C)c3)cnc12 [Example 1-7, 4-methyl-7-(1-methyl-1H-pyrazol-4-yl)-1,5-naphthyridin-2-amine]	7.92	–
Cc1cc(N)nc2cc(Oc3ccccc3F)cnc12 [Example 3-2, 7-(2-fluorophenoxy)-4-methyl-1,5-naphthyridin-2-amine]	5.11	–
Cc1cc(N)nc2cc(-c3cccnn3)cnc12 [Example 1-4, 4-methyl-7-(pyridazin-3-yl)-1,5-naphthyridin-2-amine]	7.46	–
Nc1ccc2cc(Cl)ncc2n1 [Example 6-1, 6-chloro-1,7-naphthyridin-2-amine]	≥ 100	–
Cc1cc(N)nc2cc(Cc3cscn3)cnc12 [Example 2-10, 4-methyl-7-(thiazol-4-ylmethyl)-1,5-naphthyridin-2-amine]	2.14	–
Cc1cc(N)nc2cc(Cc3ccccn3)cnc12 [Example 2-6, 4-methyl-7-(2-pyridylmethyl)-1,5-naphthyridin-2-amine]	2.85	–
Cc1cc(N)nc2ccc(-c3ccccn3)nc12 [Example 4-2, 4-methyl-6-(2-pyridyl)-1,5-naphthyridin-2-amine]	13.9	–
Nc1ccc2c(n1)CN(c1cncc(Oc3ccccc3)c1)CC2 [Example 11-2, 7-(5-phenoxy-3-pyridyl)-6,8-dihydro-5H-1,7-naphthyridin-2-amine]	0.073	IC50 [2, 5]: 5.8 µM
Cc1cc(N)nc2ccc(-c3ccc(F)cc3)nc12 [Example 4-9, 6-(4-fluorophenyl)-4-methyl-1,5-naphthyridin-2-amine]	14	–
CC(=O)N1CCC(=O)n2c(cc3nc(N)c(C)cc32)C1 [Example 15-2, 11-acetyl-5-amino-4-methyl-1,6,11-triazatricyclo[7.5.0.0^2,7]tetradeca-2,4,6,8-tetraen-14-one]	2.47	IC50 [2, 4]: > 300 µM; IC50 [2, 5]: 57.9 µM
Cc1cc2[nH]c(CNC(=O)c3ccccc3)c(C#N)c2nc1N [Example 15-6, N-((5-amino-3-cyano-6-methyl-1H-pyrrolo[3,2-b]pyridin-2-yl)methyl)benzamide]	2.64	IC50 [2, 4]: > 300 µM; IC50 [2, 5]: 76.7 µM
Cc1cc2[nH]c(N3CCN(C)C3=O)cc2nc1N [Example 13-5, 1-(5-amino-6-methyl-1H-pyrrolo[3,2-b]pyridin-2-yl)-3-methyl-imidazolidin-2-one]	31.8	IC50 [2, 3]: 70 µM; IC50 [2, 4]: > 300 µM
Cn1cc(N2CCc3cc(F)c(N)nc3C2)cn1 [Example 11-3, 3-fluoro-7-(1-methyl-1H-pyrazol-4-yl)-5,6,7,8-tetrahydro-1,7-naphthyridin-2-amine]	≥ 100	–
Cc1cc(N)nc2ccc(-c3cnn(C)c3)nc12 [Example 4-5, 4-methyl-6-(1-methylpyrazol-4-yl)-1,5-naphthyridin-2-amine]	64.1	–
Nc1ccc2[nH]c(NC(=O)c3ccccc3)cc2n1 [Example 12-3, N-(5-amino-1H-pyrrolo[3,2-b]pyridin-2-yl)benzamide]	18.3	IC50 [2, 4]: 95.9 µM; IC50 [2, 5]: 97.7 µM
Cc1cc2c(cc(CNC(=O)c3ccccc3)n2C)nc1N [Example 15-3, N-[(5-amino-1,6-dimethyl-pyrrolo[3,2-b]pyridin-2-yl)methyl]benzamide]	0.138	–
Cc1cc(N)nc2cc(Oc3ccccc3Cl)cnc12 [Example 3-3, 7-(2-chlorophenoxy)-4-methyl-1,5-naphthyridin-2-amine]	4.8	–
Cc1cc(N)nc2cc(Oc3ccccn3)cnc12 [Example 3-6, 4-methyl-7-(pyridin-2-yloxy)-1,5-naphthyridin-2-amine]	40.6	–
Cc1cc(N)nc2cc(-c3ccccn3)cnc12 [Example 1-2, 4-methyl-7-(pyridin-2-yl)-1,5-naphthyridin-2-amine]	82	–
Cc1cc(N)nc2ccc(-c3cccnc3)nc12 [Example 4-3, 4-methyl-6-(3-pyridyl)-1,5-naphthyridin-2-amine]	23.9	–
Cc1cc(N)nc2cc(Oc3ccncc3)cnc12 [Example 3-8, 4-methyl-7-(pyridin-4-yloxy)-1,5-naphtbyridin-2-amine]	84	–
